Experimental data published in US7786141B2 (Vertex Pharmaceuticals Incorporated, priority 2004, dated 2010).
Like-named read-outs stand apart in the source and are kept apart here.

Tests used:
M4 muscarinic receptor = biological target: T1, M4 muscarinic receptor (Homo sapiens, UniProt P08173); assay: Functional mobilization of intracellular calcium (FLIPR) in M4-CHO cells; format: cell-based
T1 construct: expressed in transfected cells; host or cells: CHO (M4-CHO)
T1 sequence (P08173 1-479): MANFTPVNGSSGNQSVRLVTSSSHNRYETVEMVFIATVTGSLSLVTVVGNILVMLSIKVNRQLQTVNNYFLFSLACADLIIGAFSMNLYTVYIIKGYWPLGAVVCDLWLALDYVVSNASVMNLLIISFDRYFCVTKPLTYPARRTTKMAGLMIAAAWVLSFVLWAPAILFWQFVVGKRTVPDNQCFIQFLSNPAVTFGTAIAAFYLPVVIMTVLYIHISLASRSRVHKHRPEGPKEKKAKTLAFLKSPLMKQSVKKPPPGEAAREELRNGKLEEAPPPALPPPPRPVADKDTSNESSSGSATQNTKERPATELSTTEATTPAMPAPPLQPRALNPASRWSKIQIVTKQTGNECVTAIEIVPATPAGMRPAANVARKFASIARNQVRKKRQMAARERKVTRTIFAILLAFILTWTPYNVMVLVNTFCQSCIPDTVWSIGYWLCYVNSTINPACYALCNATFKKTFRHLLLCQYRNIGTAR
Procedure, shortened: (§1)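 Steps: seed M1- or M4-CHO cells 18-24 hrs ahead; load calcium dye with 1 mM probenecid; add test compound (0.5% DMSO final), either alone for agonism or 15 min before EC80 carbachol for inhibition; record FLIPR fluorescence for 60 sec.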

M1 muscarinic receptor = biological target: T2, M1 muscarinic receptor (Homo sapiens, UniProt P11229); assay: Functional mobilization of intracellular calcium (FLIPR) in M1-CHO cells; format: cell-based
T2 construct: expressed in transfected cells; host or cells: CHO (M1-CHO)
T2 sequence (P11229 1-460): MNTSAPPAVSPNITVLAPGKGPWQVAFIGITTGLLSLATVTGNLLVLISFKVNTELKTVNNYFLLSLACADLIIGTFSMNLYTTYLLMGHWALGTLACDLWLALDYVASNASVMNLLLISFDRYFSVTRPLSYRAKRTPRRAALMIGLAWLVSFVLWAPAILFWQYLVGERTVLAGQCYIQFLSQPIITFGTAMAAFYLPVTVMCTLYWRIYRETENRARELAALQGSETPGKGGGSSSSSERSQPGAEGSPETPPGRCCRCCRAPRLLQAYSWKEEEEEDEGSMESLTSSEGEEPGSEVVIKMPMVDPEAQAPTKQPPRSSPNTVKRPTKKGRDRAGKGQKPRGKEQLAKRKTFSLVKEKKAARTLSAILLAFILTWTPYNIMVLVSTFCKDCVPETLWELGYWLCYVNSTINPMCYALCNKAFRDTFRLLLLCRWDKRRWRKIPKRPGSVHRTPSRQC
Procedure, shortened: as §1

[1] = Table 4, 100% efficacy is the maximum response obtained with the Carbachol control
[2] = Table 4, M4 receptor, calcium mobilization (FLIPR)
[3] = Table 4, M1 receptor, calcium mobilization (FLIPR)
[4] = Table 4, modulating M4 receptor
[5] = Table 4, modulating M1 receptor
[6] = M4 receptor, calcium mobilization
[7] = M4 receptor, calcium mobilization, read-out: M4 Efficacy
[8] = M1 receptor, calcium mobilization
[9] = M1 receptor, calcium mobilization, read-out: M1 Efficacy
[10] = 100% efficacy is the maximum response obtained with the Carbachol control, Table 5

| Structure (SMILES) | Emax (M4 muscarinic receptor; [1]) | M4 Activity (M4 muscarinic receptor; [2]) | Emax (M1 muscarinic receptor; [1]) | M1 Activity (M1 muscarinic receptor; [3]) | M4 Activity (M4 muscarinic receptor; [6]) | Emax (M4 muscarinic receptor; [7]) | M1 Activity (M1 muscarinic receptor; [8]) | Emax (M1 muscarinic receptor; [9]) | also measured |
| --- | --- | --- | --- | --- | --- | --- | --- | --- | --- |
| CN(C)C(=O)N[C@H]1CC2(CCN([C@@H]3CC4CC[C@@H]3C4)CC2)c2ccccc21 [compound 1005] | 25 to 100% | xxx (activity was measured to be less than 2.0 μM) | < 25% | x (activity was measured to be greater than 5.0 μM) |  |  |  |  |  |
| CCOC(=O)N1C2CCC1CC(N1CCC3(CC[C@@H](NC(C)=O)c4ccccc43)CC1)C2 (stereo partly drawn) [compound 669] | 25 to 100% |  | 25 to 100% |  |  |  |  |  | M4 Activity (M4 muscarinic receptor; [4]): xxx (activity was measured to be less than 2.0 μM); M1 Activity (M1 muscarinic receptor; [5]): xxx (activity was measured to be less than 2.0 μM) |
| Cc1ccc2c(c1)C1(CCN(C3CC4CCC3C4)CC1)CN2C(=O)c1cc(C)n(C)n1 (stereo not drawn) [compound 211] |  |  |  |  | x (activity was measured to be greater than 1.0 μM) | < 65% | x (activity was measured to be greater than 1.0 μM) | 65 to 85% |  |
| CCOC(=O)N1CCC(N2CCC3(CC2)CN(C(=O)c2ccc(OC(F)(F)F)cc2)c2ccc(F)cc23)CC1 [compound 66] |  |  |  |  | xxx (activity was measured to be less than 0.1 μM) | > 85% | xxx (activity was measured to be less than 0.1 μM) | > 85% |  |
| CC(=O)N[C@H]1CC2(CCN(C3CC(C)(C)CC(C)(C)C3)CC2)c2ccccc21 [compound 641] | < 25% |  | < 25% |  |  |  |  |  | M4 Activity (M4 muscarinic receptor; [4]): x (activity was measured to be greater than 5.0 μM); M1 Activity (M1 muscarinic receptor; [5]): x (activity was measured to be greater than 5.0 μM) |
| CC(=O)N1CC2(CCN(C3CCN(c4cncc(CC(C)C)n4)CC3)CC2)c2ccccc21 [compound 893] | < 25% | x (activity was measured to be greater than 5.0 μM) | < 25% | x (activity was measured to be greater than 5.0 μM) |  |  |  |  |  |
| COc1cc2c(cc1OC)C1(CCN(C3CCCCCC3)CC1)C[C@@H]2NC(C)=O [compound 442] | < 25% |  | < 25% |  |  |  |  |  | M4 Activity (M4 muscarinic receptor; [4]): x (activity was measured to be greater than 5.0 μM); M1 Activity (M1 muscarinic receptor; [5]): x (activity was measured to be greater than 5.0 μM) |
| CCOC(=O)N1CCC(N2CCC3(CC2)CN(C(=O)c2ccc(OC)cc2)c2ccc(F)cc23)CC1 [compound 41] |  |  |  |  | xxx (activity was measured to be less than 0.1 μM) | > 85% | xxx (activity was measured to be less than 0.1 μM) | > 85% |  |
| CCOC(=O)N1C2CCC1CC(CN1CCC3(CC1)CNc1ccc(C)cc13)C2 (stereo not drawn) [compound 332] |  |  |  |  | x (activity was measured to be greater than 1.0 μM) | < 65% | x (activity was measured to be greater than 1.0 μM) | < 65% |  |
| CCON=C1CCC(N2CCC3(CC2)CN(C(C)=O)c2ccc(F)cc23)CC1 (stereo not drawn) [compound 86] |  |  |  |  | x (activity was measured to be greater than 1.0 μM) | < 65% | xxx (activity was measured to be less than 0.1 μM) | 65 to 85% |  |
| CN(C)C(=O)N1CC2(CCN(C3CCN(C(=O)CCC(F)(F)F)CC3)CC2)c2cc(F)ccc21 [compound 633] | < 25% |  | 25 to 100% |  |  |  |  |  | M4 Activity (M4 muscarinic receptor; [4]): x (activity was measured to be greater than 5.0 μM); M1 Activity (M1 muscarinic receptor; [5]): xx (activity was measured to be between 2.0 μM and 5.0 μM) |
| COc1ccccc1N1CCC(N2CCC3(CC2)CN(C(=O)N(C)C)c2ccc(F)cc23)CC1 [compound 1027] |  |  |  |  |  |  |  |  | Emax (M4 muscarinic receptor; [10]): 25 to 100%; EC50 (M4 muscarinic receptor; CHO cells expressing M4, calcium mobilization, Table 5): 2 to 10 µM; Emax (M1 muscarinic receptor; [10]): 25 to 100%; EC50 (M1 muscarinic receptor; CHO cells expressing M1, calcium mobilization, Table 5): 2 to 10 µM |
| CCOC(=O)N1C2CCC1CC(N1CCC3(C[C@H](NC(C)=O)c4cc(F)ccc43)C1)C2 (stereo partly drawn) [compound 928] | 25 to 100% | xxx (activity was measured to be less than 2.0 μM) | 25 to 100% | xxx (activity was measured to be less than 2.0 μM) |  |  |  |  |  |
| CC#CCOC(=O)N1CC[C@@H](CN2CCC3(CC2)CN(C(C)=O)c2cccc(C)c23)C1 [compound 929] | 25 to 100% | xxx (activity was measured to be less than 2.0 μM) | 25 to 100% | xxx (activity was measured to be less than 2.0 μM) |  |  |  |  |  |
| CC(=O)N1CC2(CCN(CC3CCC(C)=CC3C)CC2)c2cc(F)ccc21 (stereo not drawn) [compound 968] | < 25% | x (activity was measured to be greater than 5.0 μM) | < 25% | x (activity was measured to be greater than 5.0 μM) |  |  |  |  |  |
| Clc1ccc2c(c1)C1(CCN(CC3CCCCC3)CC1)CN2 [compound 157] |  |  |  |  | x (activity was measured to be greater than 1.0 μM) | > 85% | xxx (activity was measured to be less than 0.1 μM) | 65 to 85% |  |
| COC(=O)N1CCC(CN2CCC3(CC2)C[C@H](NC(C)=O)c2ccccc23)CC1 [compound 182] |  |  |  |  | x (activity was measured to be greater than 1.0 μM) | 65 to 85% | x (activity was measured to be greater than 1.0 μM) | 65 to 85% |  |
| COCCOC(=O)N1CC2(CCN(C3CC4CCC(C3)N4C(=O)OC3CCC3)CC2)c2cc(F)ccc21 (stereo not drawn) [compound 195] |  |  |  |  | x (activity was measured to be greater than 1.0 μM) | < 65% | xx (activity was measured to be between 0.1 μM and 1.0 μM) | < 65% |  |
| CCOC(=O)N1CCCC(N2CCCC3(CC2)CN(C(C)=O)c2ccc(F)cc23)CC1 (stereo not drawn) [compound 986] | 25 to 100% | xxx (activity was measured to be less than 2.0 μM) | 25 to 100% | xxx (activity was measured to be less than 2.0 μM) |  |  |  |  |  |
| CCCC(=O)N[C@H]1CC2(CCN(CC3CCCCC3)CC2)c2ccccc21 [compound 797] | 25 to 100% |  | 25 to 100% |  |  |  |  |  | M4 Activity (M4 muscarinic receptor; [4]): xxx (activity was measured to be less than 2.0 μM); M1 Activity (M1 muscarinic receptor; [5]): x (activity was measured to be greater than 5.0 μM) |
| Cc1cnc(C)c(N2CCC(N3CCC4(CC3)CN(C(=O)N(C)C)c3ccc(F)cc34)CC2)n1 [compound 659] | 25 to 100% |  | 25 to 100% |  |  |  |  |  | M4 Activity (M4 muscarinic receptor; [4]): xxx (activity was measured to be less than 2.0 μM); M1 Activity (M1 muscarinic receptor; [5]): xxx (activity was measured to be less than 2.0 μM) |
| Fc1ccc2c(c1)C1(CCN(CC3CCC4CCC3C4)CC1)CN2 (stereo not drawn) [compound 13] |  |  |  |  | x (activity was measured to be greater than 1.0 μM) | < 65% | xx (activity was measured to be between 0.1 μM and 1.0 μM) | 65 to 85% |  |
| CCOC(=O)N1CCC(CN2CCC3(CC2)CN(C(C)=O)c2c(F)cccc23)CC1 [compound 307] |  |  |  |  | x (activity was measured to be greater than 1.0 μM) | < 65% | xx (activity was measured to be between 0.1 μM and 1.0 μM) | 65 to 85% |  |
| CCOC(=O)N1CC2(CCN(C3CC4CCC3C4)CC2)c2cc(C)ccc21 (stereo not drawn) [compound 902] | < 25% | x (activity was measured to be greater than 5.0 μM) | 25 to 100% | x (activity was measured to be greater than 5.0 μM) |  |  |  |  |  |
| COCCN1CC2(CCN(C3CCCCCC3)CC2)c2cc(F)ccc21 [compound 958] | 25 to 100% | xxx (activity was measured to be less than 2.0 μM) | 25 to 100% | xxx (activity was measured to be less than 2.0 μM) |  |  |  |  |  |
| CCOC(=O)N1CCC(N2CCC3(CC2)CN(c2cccnc2)c2ccc(F)cc23)CC1 [compound 941] | 25 to 100% | xxx (activity was measured to be less than 2.0 μM) | 25 to 100% | xxx (activity was measured to be less than 2.0 μM) |  |  |  |  |  |
| CCOC(=O)N1CCC(N2CCC3(CC2)CN(C(=O)C2CCCCC2)c2ccc(F)cc23)CC1 [compound 281] |  |  |  |  | xx (activity was measured to be between 0.1 μM and 1.0 μM) | 65 to 85% | xx (activity was measured to be between 0.1 μM and 1.0 μM) | < 65% |  |
